Measurements reported in US6288261A, “Inhibitors of matrix metalloproteinases” (Abbott Laboratories, priority 1999, dated 2001).

Target: T1, recombinant truncated stromelysin (human sequence) (Homo sapiens, UniProt P08254)
T1 construct: made in house; host or cells: E. coli
Test: Determination of Stromelysin Inhibition
Assay type: biochemical
Details: recombinant truncated human stromelysin produced in E. coli
Procedure: Determination of Stromelysin Inhibition
The efficacy of the compounds of this invention as matrix metalloproteinase inhibitors was determined by measuring the inhibition of stromelysin. The inhibition of stromelysin by the compounds of this invention was determined as follows: recombinant truncated stromelysin (human sequence) produced in E. coli was prepared by expression and purification of the protein as described by Ye et al, Biochemistry, 1992, 31, 11231-11235. The IC50 values were determined as described in Steiman et al, Bioorganic and Medicinal Chemistry Letters, (1998), 8, 2087-2092 (footnote 13).

T1 sequence (P08254 100-273 limits assumed): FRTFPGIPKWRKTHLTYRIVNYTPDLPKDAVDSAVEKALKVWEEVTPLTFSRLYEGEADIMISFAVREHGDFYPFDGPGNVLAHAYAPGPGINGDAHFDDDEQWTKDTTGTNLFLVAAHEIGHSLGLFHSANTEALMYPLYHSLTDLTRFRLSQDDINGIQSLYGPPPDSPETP

With `COc1ccc(-c2ccc(C(=O)CCc3ccc4ccccc4c3C(=O)NO)cc2)cc1` [Example 12, N-hydroxy-2-[3-(4'-methoxy[1,1'-biphenyl]-4-yl)-3-oxopropyl]-1-naphthalenecarboxamide] as the molecule, how does the IC50 read?
The IC50 was 0.45 µM.

How did the IC50 turn out when `COc1ccc(-c2ccc(C(=O)CCCc3ccc4ccccc4c3C(=O)NO)cc2)cc1` [Example 11, N-hydroxy-2-[4-(4'-methoxy[1,1'-biphenyl]-4-yl)-4-oxobutyl]-1-naphthalenecarboxamide] was run?
The IC50 was 1.5 µM.

`O=C(NO)c1c(OCCS(=O)(=O)c2ccc(-c3ccc(Cl)cc3)cc2)ccc2ccccc12` [Example 6, 2-[[2-(4'-chloro[1,1'-biphenyl]-4-yl)sulfonyl]ethoxy]-N-hydroxy-1-naphthalenecarboxamide] was tested. Which IC50 did it give?
Its IC50 is 0.67 µM.

How did the IC50 turn out when `O=C(NO)c1c(CCOc2ccc(-c3ccc(Cl)cc3)cc2)ccc2ccccc12` [Example 1, 2-[2-[(4'-chloro[1,1'-biphenvyl]-4-vl)oxy]eyl]-N-hydroxy-1-naphthalenecarboxamide] was run?
The IC50 was 0.64 µM.

For `O=C(NO)c1c(CCS(=O)(=O)c2ccc(-c3ccc(Cl)cc3)cc2)ccc2ccccc12` [Example 8, 2-[2-[(4'-chloro[1,1'-biphenyl]-4-yl)sulfonyl]ethyl]-N-hydroxy-1-naphthalenecarboxamide], which IC50 is on record?
The IC50 was 3.7 µM.

Which IC50 does the source give for `N#CCc1cccc(-c2ccc(S(=O)(=O)CCOc3ccc4ccccc4c3C(=O)NO)cc2)c1` [Example 13] here?
Its IC50 is 0.062 µM.

With `COc1ccc(-c2ccc(S(=O)(=O)CCOc3ccc4ccccc4c3C(=O)NO)cc2)cc1` [Example 7, N-hydroxy-2-[2-[(4'-methoxy[1,1'-biphenyl]-4-vl)sulfonyl]ethoxy]-1-naphthalenecarboxamide] as the molecule, how does the IC50 read?
Its IC50 is 0.46 µM.

For `O=C(NO)c1c(CNS(=O)(=O)c2ccc(-c3ccc(OC(F)(F)F)cc3)cc2)ccc2ccccc12` [Example 9], which IC50 is on record?
Its IC50 is 0.69 µM.

Which IC50 does the source give for `COc1ccc(-c2ccc(S(=O)(=O)CCCc3ccc4ccccc4c3C(=O)NO)cc2)cc1` [Example 10, N-hydroxy-2-[3-[(4'-methoxy[1,1'-biphenyl]-4-yl)sulfonyl]propyl]-1-naphthalenecarboxamide] here?
The IC50 was 0.4 µM.
